In patent publication US8518450B2, “Nanoparticle carriers for drug administration and process for producing same” (CSIR, priority 2008, dated 2013):

How the values were obtained:
[1] = Drug incorporation / encapsulation efficiency of INH (UV-Vis); type: physicochemical; conditions: spray dried PLGA nanoparticles, PLGA:INH 2:1
Method: The amount of the hydrophilic drug Isoniazid that was entrapped in the particle powder after the nanoencapsulation process was measured in triplicate using a spectrophotometric method (UV-Vis, Thermo Spectronic Heliosα). The encapsulation efficiency of INH in nanoparticles was determined as the mass ratio of the entrapped INH to the theoretical amount of INH used in the preparation. For that, 50 mg of precipitated particles were re-suspended in 20 ml of deionised water, centrifuged (10 000 rpm/10 C/5 min) to remove the un-encapsulated drug and the supernatant was subject to UV-Vis Spectrophotometer, read at λ=262 nm for INH assessment. The encapsulated amount of INH was determined by subtracting INH in the supernatant from total initial INH amount.

[2] = INH stability assessment using RP-HPLC; type: physicochemical; conditions: formulation with lactose
Method: The stability of INH spray dried powders was assessed by reverse phase-high performance liquid chromatography-analysis (RP-HPLC) using Shimadzu machine supplied with Photodiode Array (PDA) detector.
The following characteristics were applied: a Column Phenomenex [(C18 (5 μm); (250×4.6 mm ID)], a mobile phase of 5% (v/v) acetonitrile with 95% (v/v) buffer NaH2PO4 (pH 6.8), at a flow rate of 1 ml/min and at a temperature of 30° C. The detection was performed using PDA at λ=259 nm, on a total injection volume of 20 μl.

## NNC(=O)c1ccncc1 [INH, isoniazid]
[1]
  encapsulation efficiency of INH: ~60%
[2]
  stability of INH in spray dried powders (HPLC): degradation of INH
